By half-life is commonly meant the time in which the quantity being followed falls by half. Read a high half-life as slow loss. One may read the Cmax as the highest concentration seen after dosing. In general, Km refers to the substrate concentration at which the rate is half of its maximum. In general, kcat refers to the number of substrate molecules converted per active site and unit of time at saturation.

These results are taken from patent US7906477B2 (Genspera, Inc., priority 2002, dated 2011).

Square brackets hold non-standard residues; d marks the D form. Ends that are not written are not given here. Peptide text beside a SMILES is read from it. * marks the point of attachment. X1 = C/C=C(/C)C(=O)O[C@H]1C(C)=C2[C@H]([C@@H]1OC(=O)CCCCCCC)[C@@](C)(OC(C)=O)C[C@H](OC(=O)CCCCCCCCCCCN*)[C@@]1(O)[C@H]2OC(=O)[C@@]1(C)O; Tyr(3-NO2) = N[C@@H](Cc1ccc(O)c([N+](=O)[O-])c1)C(=O)O; AMC = Cc1cc(=O)oc2cc(N*)ccc12; Abz = aminobenzoic acid; Dap = NC[C@H](N)C(=O)O

In series [1] the test system is human prostate cancer cells. Conditions: human prostate cancer cells in vitro; cited from earlier work.
A short description of series [2]: pharmacokinetics after single intravenous dose, plasma levels by LC/MS/MS. The format is in vivo, mouse. As to conditions: Balb-C mice, single intravenous dose 3.67 μmoles/kg. The method, then:
FIG. 9 depicts pharamacokinetic analysis of GKAFRR-L12ADT (SEQ ID NO:44) following single intravenous injection of 3.67 μmole/kg. Mice were treated in groups of 3 and then sacrificed at indicated time points. Data represent average±standard error of plasma concentrations as determined by LC-MS analysis.
Calibration standards consisted of ac-GKAFRR-L12ADT prodrug, RL12ADT or L12ADT spiked into mouse plasma and plasma samples from treated mice were analyzed by liquid chromatography coupled to a quadrupolequadripole mass spectrometer (LC/MS/MS) [PESciex API 3000]. A multistep gradient elution HPLC method was used to separate the ac-GKAFRR-L12ADT prodrug from the free RL12ADT and L12ADT with eluent A=2 mM ammonium acetate with 0.1% formic acid 1% acetic acid in deionized water and eluent B=90% acetonitrile/1% acetic acid/[…]. Samples were eluted through a Zorbax SB-C18 Rapid Resolution column (2/1×30 mm, 3.5 μm) at a flow rate of 0.3 ml/min and gradient of 100% A to 100% B over 12 minutes. Calibration was done using extracted standards of ac-GKAFRR-L12ADT added to and then extracted from mouse plasma in a range of 0.001-10 μM, and linear regression analysis was used to generate best-fit lines, from which peak areas of samples were converted to concentration of prodrug. Peak areas of RL12ADT and L12ADT were below limit of detection at all time points and, therefore, calibration was not performed. Single-dose pharmacokinetics were assessed by noncompartmental analysis (Gibaldi, M. and Perroer, D. Pharmacokinetics, 2nd edition, p. 407-409. New York, 1982) The area under the curve from time zero to infinity (AUC0-∞) was calculated with the linear trapezoidal method (Gibaldi, M. and Perroer, D. Pharmacokinetics, 2nd edition, p. 407-409. New York, 1982)). The terminal half-life (T1/2) was determined from the terminal slope (ke) on a log-linear plot of concentration versus time.
To determine pharmacokinetic parameters for the hK2-activated thapsigargin prodrug, Balb-C mice (n=3/timepoint) were treated with a single intravenous dose of 3.67 μmoles/kg of the ac-GKAFRR-L12ADT (SEQ ID NO:41) prodrug. At various time points (5, 10, 30 minutes and 1, 1.5, 2, 3, 4, 6, 12, 24 hrs) mice were sacrificed after blood was obtained by cardiac puncture. After precipitating serum proteins with acetonitrile, supernatants were evaluated by LC-MS to determine concentrations of ac-GKAFRR-L12ADT (SEQ ID NO:41), R-L12ADT and L12ADT at each time points. Areas under the curve were converted to concentrations based on a standard curve that was linear for concentrations ranging from 1 nM to 10,000 nM. […] Both RL12ADT and L12ADT were below the lower limit of detection (i.e. <1 nM) for all time points, FIG. 6.

In the next series the test system is Balb-C mice. Briefly: in vivo toxicity, single and repeated intravenous injection. On the set-up: species or system mouse. The method, then:
To determine in vivo toxicity of ac-GKAFRR-L12ADT (SEQ ID NO:41), Balb-C mice (Harlan) received a single intravenous injection of an increasing dose of prodrug. Mice were monitored for toxicity hourly for twelve hours and then daily×one week. Separate groups of three mice each received increasing doses of ac-GKAFRRL12ADT (SEQ ID NO:41). […] All animals receiving doses less than LD100 were alive and well up to 1 week after receiving a single dose. All procedures were performed according to protocols approved by the Johns Hopkins Animal Care and Use Committee.
Balb-C mice were treated in groups of 3with a single intravenous injection of increasing doses of the ac-GKAFRR-L12ADT (SEQ ID NO:41) prodrug to establish the dose that killed 100% of mice (i.e. LD100). […] All mice, however, tolerated a single intravenous dose of 3.67 μmoles/kg and this dose was then used for further dosing and pharmacokinetic studies.

Series [3] can be described thus: plasma stability in 50% human plasma. The format is in vitro ADME. As to conditions: 50% fresh heparinized plasma, 24 hours, room temperature, HPLC and MALDI-TOF. On the procedure:
FIG. 5 depicts the stability of Ac-GKAFRR-L12ADT (SEQ ID NO:41) in human plasma after a 24 hour incubation, as determined by HPLC analysis. Ac-GKAFRR-L12ADT (SEQ ID NO:41) was incubated in 50% human plasma for 24 hours at room temperature. Peak 1 represents an unidentified plasma contaminant that was also present in control plasma. Peaks 2 and 3 both represent Ac-GKAFRR-L12ADT (SEQ ID NO:41) as confirmed by MALDI-TOF mass spectrometric analysis.
Mouse plasma was obtained from cardiac puncture of anesthetized mice prior to euthanization by CO2 overdose according to protocols approved by the Johns Hopkins Animal Care and Use Committee. Human plasma was obtained from discarded, pooled, and unlabeled clinical samples. Plasma was diluted to 50% in Tris buffer (50 mM Tris-HCl, 100 mM NaCl, pH 7.8). To this, test peptides/prodrugs were added to 250 or 500 μM final concentration. After the incubation period, one volume (200 μl) of acetonitrile was added to precipitate the protein fraction and the tube was centrifuged at 14,000 for 2 min. The supernatant was analyzed by C18-HPLC and the collected peaks were analyzed by MALDI-TOF as described above.
Arginine-containing peptides are potential substrates for the wide variety of other trypsin-like proteases that are present in the blood and may have residual activity in the blood. The plasma stability of an hK2 peptide substrate may therefore be limited and this would have significant consequences related to the development of an hK2 activated prodrug. Therefore, two fluorescence quenched hK2 peptide substrates peptides were incubated in 50% mouse or human plasma (diluted in PBS buffer) to determine stability using a plate-reader. As observed with arginine containing peptides from the SPOT analysis above, none of the arginine-containing, fluorescence quenched hK2peptide substrates were stable in human or mouse plasma. Fluorescence-quenched Y′GKAFRR-Dap-GK′ (SEQ ID NO:42) and Y′GKAFRRLGK′ (SEQ ID NO:21) (500 μM each) were hydrolyzed when incubated in 50% mouse or human plasma (FIG. 7). Mouse plasma degraded the peptides faster than human plasma (FIG. 7). […] In human plasma, more peptide remained after 3 hours (˜25%). […] The proteolytic activity from plasma was never affected by repeated freeze-thaw cycles or by storage of the mouse plasma alone at room temperature for several days.
To determine the plasma stability for the hK2 prodrug, the prodrug was incubated in 50% fresh heparinized (1%) plasma for 24 hours at room temperature, precipitated the proteins by adding one volume of 1% TFA in acetonitrile and analyzed the supernatant by HPLC. Unexpectedly, BPLC analysis after 24 hrs incubation in plasma yielded only a single peak corresponding to the hK2 prodrug (FIG. 5). MALDI-TOF MS of the isolated single peak confirmed the stability of the molecule.

The next series relates to Cathepsin B. Briefly: Cathepsin B, 1 μg/ml.
For the next series, the system named is Cathepsin D. Briefly: Cathepsin D, 1 μg/ml.
For a further series, the system named is Plasmin. In words: Plasmin, 1 μg/ml.
A further series concerns Urokinase. In words: Urokinase, 1 μg/ml.
Series [4] deals with hK2. Briefly: hK2 (4 μg/ml) in 50 mM Tris, 0.1 M NaCl, pH 7.8. Conditions: human, room temperature, up to 24 hours.
Series [5] in a line: 50% fresh heparinized (1%) plasma; 50% human plasma. Conditions: room temperature, up to 24 hours.
For series [6], the target named is T1, hK2 (Homo sapiens, UniProt P20151).
T1 construct: made in house
T1 sequence (P20151 25-261): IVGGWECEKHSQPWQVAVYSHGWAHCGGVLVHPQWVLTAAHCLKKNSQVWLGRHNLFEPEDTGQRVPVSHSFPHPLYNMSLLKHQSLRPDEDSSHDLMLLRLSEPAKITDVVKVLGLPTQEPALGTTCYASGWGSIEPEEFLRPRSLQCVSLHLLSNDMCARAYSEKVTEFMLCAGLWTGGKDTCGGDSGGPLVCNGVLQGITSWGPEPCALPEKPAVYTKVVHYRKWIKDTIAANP
As to conditions: previously reported; cited from earlier work.

Series [7] addresses T1, hK2. In words: on-bead digestion of PEGA-bound fluorescence-quenched peptides by hK2. It is filed as biochemical. Conditions: 4 μg/ml hK2, PEGA resin. The method, then: For screening, approximately 1 ml of resin (˜65,000 beads) was first suspended in methanol in a Petri dish and examined under transilluminant UV light (302 nm) to detect any falsely positive fluorescent beads prior to addition of protease. After removal of ˜40-50 beads, the resin was washed with water and finally suspended in 10 ml buffer in a glass Petri dish. After a final screen for false-positives, hK2 was added from a frozen stock solution to make 4 μg/ml final. Fluorescent beads were selected and removed with a micropipette, washed with 1 M NaCl, water, DMF, MeOH, water and stored in MeOH at −20° C.
Additionally, Walle and co-workers (Thorpe, D. S. and Walle, S. (2000) Biochem. Biophys. Res. Commun. 269:591-595) published data from a small combinatorial library to find linkers for the optimal display of peptide ligands to various protein targets. They reported that the insertion of a dipeptide consisting of a cationic residue together with a hydrophobic residue presents a general method for optimizing peptide display on solid phase beads. […] The test peptide Y′GKAFRL-Dap-F-K′-PEGA (SEQ ID NO:53) was synthesized and observed that the time required to generate clearly detectable fluorescence on the beads was reduced to 4-5 hours compared to 10-12 hours for the same peptide sequence lacking the Dap-F linker. […]

In series [8] the test system is hK2. In words: 8 μg/ml hK2 in PBS buffer. As to conditions: human.
For series [9], the system named is hK2. Briefly: hK2, fluorescence-quenched peptides tested in solution. Conditions: human, up to prolonged incubation.
The mark [10] stands for this setting: five consecutive daily intravenous injections of 3.67 μmoles/kg.

As for `CC=C(C)C(=O)OC1C(C)=C2C(C1OC(=O)CCCCCCC)C(C)(OC(C)=O)CC(OC(=O)CCCCCCCCCCCNC(=O)C(N)CC(C)C)C1(O)C2OC(=O)C1(C)O` [L12ADT, 8-O-(12-[L-leucinoylamino]dodecanoyl)-8-O-debutanoylthapsigargin], the LD50 in [1] is listed as approximately 30 nM.

Take `C/C=C(/C)C(=O)O[C@H]1C(C)=C2[C@H]([C@@H]1OC(=O)CCCCCCC)[C@@](C)(OC(C)=O)C[C@H](OC(=O)CCCCCCCCCCCNC(=O)[C@H](CC(C)C)NC(=O)[C@H](CCCNC(=N)N)NC(=O)[C@H](CCCNC(=N)N)NC(=O)[C@H](Cc1ccccc1)NC(=O)[C@H](C)NC(=O)[C@H](CCCCN)NC(=O)CNC(C)=O)[C@@]1(O)[C@H]2OC(=O)[C@@]1(C)O` [ac-GKAFRR-L12ADT] (Ac-GKAFRRL-X1): in series [2], the “stability in the serum in vivo (in words)” value is “highly stable to hydrolysis in the serum in vivo”. In series [2] (mouse, plasma), this compound showed a half-life of 40.7 ± 1.2 min and a maximum concentration (Cmax) of 36.8 ± 7.2 µM. Further, in [2] (mouse, plasma, read-out: area under the curve (converted)), the AUC(0-inf) was 40.7 µM·h. In addition, the “single intravenous dose tolerated by all mice” value with Balb-C mice (Balb-C mice, single intravenous dose) is 3.67 µmol/kg. Further, in the series with Balb-C mice (setting [10]), the “toxicity of repeated dosing (in words)” value is “without any deaths or observable toxicity” and the “weight loss over baseline” value is on record as less than 15%. Moreover, the “plasma stability of the prodrug (in words)” value in [3] is given as “No degradation products could be identified”.

With Abz-GKAFRRLY′, the not cleaved entry in the series with Cathepsin B and in the series on Cathepsin D was “No appreciable hydrolysis; relative rate 1 (approximately 0.1% digestion in 1 hour)” in each case.

Consider Ac-GKAFRR-L12ADT, for which the not cleaved entry is “No appreciable hydrolysis; relative rate 1 (approximately 0.1% digestion in 1 hour)” in the series on Cathepsin B, “No appreciable hydrolysis; relative rate 1 (approximately 0.1% digestion in 1 hour)” in the series with Cathepsin D, “no activity on the prodrug; relative rate 1 (approximately 0.1% digestion in 1 hour)” in the series with Urokinase and “only a single peak corresponding to the hK2 prodrug after 24 hrs; no degradation products” in series [5]. In addition, the values for the cleaved bond result with Plasmin and in the series with hK2 [4] were “arginine-arginine” and “Arg-Leu”, respectively.

For the compound Pro-Phe-Arg-{AMC}, on hK2 [6], the Km was 40 µM and the kcat is 0.92 s⁻¹.

With “Y′GKAFRL-Dap-F-K′-PEGA: test peptide on PEGA resin with Dap-F linker ([Tyr(3-NO2)]GKAFRL[Dap]FK(Abz)-{PEGA resin})”, in the series with hK2 [7], the “incubation time to yield clearly detectable fluorescent beads” value was in the range of 4 to 5 h.

Take “Y′GKAFRLK′-PEGA: test hK2 peptide substrate on PEGA resin ([Tyr(3-NO2)]GKAFRLK(Abz)-{PEGA resin})”: the “incubation time to yield clearly detectable fluorescent beads” value in the series with hK2 [7] was 10 to 12 h.

Consider Y′GSKGHFKL-Dap-F-K′, for which, in the series with hK2 [8], the not cleaved result was “did not show any hydrolysis”.

For Y′GSKGHFKL-Dap-K′, the not cleaved result in the series with hK2 [9] is reported as “not digested by hK2, even after prolonged incubation”.

For Y′GSKGPFKL-Dap-K′, the not cleaved entry with hK2 [9] is “not digested by hK2, even after prolonged incubation”.
